# Results published in patent US6469061B1, “Jasmonate pharmaceutical composition for treatment of cancer” (priority 2001, dated 2002).
# “And” between values parts separate entries of the source, which are not always exact repeats. Equal entries are not always repeated.
# Columns and labels:
# [1] = system: SK-28 human melanoma cells; experiment: CellTiter 96 Aqueous Non-Radioactive Cell Proliferation Assay (MTS cytotoxicity), SK-28; type: cell-based; details: SK28 cells, 0.5-3 mM tested, 24 hours
# Procedure: (§1) All cell lines were purchased from ATCC (Rockville, Md.). […] JA and MJ were dissolved in ethanol.
# [2] = system: LNCaP androgen-responsive human prostate adenocarcinoma cell line; experiment: CellTiter 96 Aqueous Non-Radioactive Cell Proliferation Assay (MTS cytotoxicity), LNCaP; type: cell-based; details: LNCaP cells, 0.5-3 mM tested, 24 hours
# Procedure: as §1
# [3] = system: MCF7 human breast carcinoma cell line; experiment: CellTiter 96 Aqueous Non-Radioactive Cell Proliferation Assay (MTS cytotoxicity), MCF7; type: cell-based; details: MCF7 cells, 0.5-3 mM tested, 24 hours
# Procedure: as §1
# [4] = system: Molt-4, SK-28, LNCaP and MCF7 cells; experiment: CellTiter 96 cytotoxicity across the four transformed cell lines; type: cell-based, human; details: 0.5-3 mM, 24 hours
# Procedure: as §1
# Results are presented as means ± standard deviation.
# Molt-4 cells [5] = experiment: Trypan blue exclusion (cell death versus suppression of proliferation), Molt-4; type: cell-based, human
# Excerpt: (§2) Since the same number of cells was aliquoted into each well initially, decreased optical density as measured in wells containing treated cells (above) reflects cellular death and/or decrease in the rate of proliferation. To distinguish between these two possibilities we employed an additional cytotoxicity assay which detects cell death by lack of trypan blue exclusion.
# SK28 cells = experiment: Trypan blue exclusion (cell death versus suppression of proliferation), SK28; type: cell-based, human
# Excerpt: as §2
# LNCaP cells = experiment: Trypan blue exclusion (cell death versus suppression of proliferation), LNCaP; type: cell-based, human
# Excerpt: as §2
# MCF7 cells = experiment: Trypan blue exclusion (cell death versus suppression of proliferation), MCF7; type: cell-based, human
# Excerpt: as §2
# [6] = system: Caspase-3 activity in Molt-4 cells; experiment: Caspase-3 (CPP32) protease assay in treated Molt-4 cells; type: cell-based, human; details: for Caspase-3 activity: all concentrations and times (2, 4, 14 hours), P<0.05
# Procedure: Elevated levels of Caspase-3 are a specific marker of the apoptosis process (Porter and Janicke, Cell Death Differ., 6, 99-104, 1999). In order to definitively determine that the cause of cell death was apoptosis, the level of Caspase-3 activity was measured in cells after treatment with JA and MJ. […] Briefly, 2×10^6 cells were lysed and resuspended in 100 μL of reaction buffer containing a fluorogenic Caspase-3 (CPP32) substrate Ac-DEVD-AMC. Reactions were incubated at 37° C. for 2 hours and samples were assayed at excitation wavelength of 360 nm and emission wavelength of 460 nm, in the FL600 Microplate Fluorescence Reader (Bio-Tek Instruments, Winooski, Vt., USA).
# Molt-4 cells [7] = experiment: Fluorescence microscopy (DAPI) of nuclear morphology in Molt-4 cells; type: cell-based, human
# Procedure: To confirm this fact, Molt-4 cells were treated with JA (2 mM) and MJ (0.5 mM) for 14 hours, and analyzed by fluorescence microscopy in order to detect essential morphological characteristics of apoptosis such as condensation and fragmentation of chromatin.
# Referring to FIG. 3, fluorescence microscopy pictures are shown depicting changes in cellular morphology within the nuclei of Molt-4 cells, after treatment with plant stress hormones JA or MJ. 5×10^5 cells/sample were harvested, then fixated by addition of a solution of phosphate-buffered saline (PBS) containing [3% paraformaldehyde and 0.1% Triton X-100], for one hour. Cells were stained for 10 minutes with DAPI (1 μg/ml). Nuclei were analyzed by fluorescence microscopy, (using a fluorescence microscope model. A×70 TRF, made by Olympus Optical, Japan) at a magnification of 1:400. Characteristic apoptotic nuclei are marked with arrows.
# [8] = system: normal lymphocytes from peripheral blood of healthy donors; experiment: CellTiter 96 cytotoxicity on normal lymphocytes stimulated by TPA/PHA; type: cell-based, human; details: 1 mM or 3 mM, 24 hours
# Excerpt: Normal lymphocytes were separated from peripheral blood, as follows: Mononuclear cells (MNC) from venous blood of healthy donors were collected by Ficoll-Hypaque (Phamacia Fine Chemicals, Uppsala, Sweden) density gradient centrifugation. The resultant mononuclear cell preparation was allowed to adhere to plastic dishes to remove contaminant macrophages. The non-adherent peripheral blood lymphocytes were selected for use.
# [9] = system: Molt-4 human T lymphoblastic leukemia cell line; experiment: CellTiter 96 Aqueous Non-Radioactive Cell Proliferation Assay (MTS cytotoxicity), Molt-4; details: Molt-4 cells, 24 hours
# Procedure: All cell lines were purchased from ATCC (Rockville, Md.). All reagents were purchased from Sigma Chemicals (St. Louis, Mo.) unless otherwise stated. JA and MJ were dissolved in ethanol.
# LNCaP, MCF7 and SK-28 cells (at 4×10^3/well) and Molt-4 cells (at 1.5×10^4/well) were seeded in 96-well plates and allowed to adhere overnight. Plant stress hormone at increasing concentrations was added as indicated below, and toxicity was measured after 24 hours using the CellTiter 96 Aqueous Non-Radioactive Cell Proliferation Assay (Promega, Madison, Wis.); an assay in which viable cells produce a colored product (for details on the protocol of this assay, see below). This assay is quantitative, as the amount of color produced is read using an ELISA reader.
# Each cell line was incubated with each of these hormones at a concentration ranging from 0.5-3 mM for 24 hours, after which cytotoxicity was measured. The statistical significance of the results was determined (where appropriate) by two-tailed student's t-test, n=3.
# This allowed for development of a color reaction in which dehydrogenases reduce the MTS in metabolically active cells. Since the cells were not washed before the addition of MTS, there were no potentially loosely adherent or non-adherent cells that could have been problematic. Soluble MTS formazan product was measured at a wavelength of 490 nm using a CERES 900 HDI ELISA reader (Bio-Tek Instruments, Inc, Highland Park, Vt.). Optical density is directly proportional to the number of living cells in culture. Cytotoxicity (%) was calculated in the following way: [(OD of control cells−OD of drug-treated cells)/OD of control cells]×100.
# Normal lymphocytes and Molt-4 cells were seeded (at 1.5×10^4/well) in 96-well plates.
# Jasmonates or salicylic acid were added at a concentration of 1 mM or 3 mM, and cells were incubated for 24 hours. Optical density representing viable cells was determined by the CellTiter 96 Aqueous Non-Radioactive Cell Proliferation Assay.
# EL-4 lymphoma cells = experiment: EL-4 lymphoma model in mice, survival; type: in vivo, mice (strain C57BL)
# Procedure: Syngeneic lymphoma cells were injected into a test group and a control group of mice (strain C57BL). The injections were administered either sub-cutaneously, or intra-peritoneally. Methyl jasmonate was administered orally, by injection directly into the resultant tumor or into the peritoneum, and the effect on tumor progression and on the rate of survival, were analyzed.
# 400,000 EL-4 lymphoma cells were injected intra-peritoneally into 20 test mice, or 19 control mice, of the C57BL strain.
# Preliminary experiments had shown that methyl jasmonate at a dosage of 236-472 mg/kg. body weight was appropriate for prevention of tumoral growth. Therefore, methyl jasmonate was dissolved in a lipid carrier (0.4% Lipofundin, manufactured by B. Brown, Melsunger, Germany) and administered orally at a dosage of 236 mg/kg body weight. Administration was daily, via the drinking water, beginning with the day of injection of the lymphoma cells.
# 19 control mice received the lipid carrier only (0.4% Lipofundin), with no methyl jasmonate dissolved within.
# The survival time of each group of mice was measured (in days), and analyzed.
# Each of these tests weighs numerically the importance of a death within one of the two groups of mice, on a given day, compared to the number of surviving mice in the whole.
Compound,"Concentrations at which cytotoxicity was significant, P<0.05 [1]","Concentrations at which cytotoxicity was significant, P<0.05 [2]","Concentrations at which cytotoxicity was significant, P<0.05 [3]",Order of sensitivity of the cell lines [4],Kind of damage (cell death or inhibition of cell proliferation) (Molt-4 cells [5]),Kind of damage (cell death or inhibition of cell proliferation) (SK28 cells),Kind of damage (cell death or inhibition of cell proliferation) (LNCaP cells),Kind of damage (cell death or inhibition of cell proliferation) (MCF7 cells),Caspase-3 activity [6],Level of Caspase-3 ([6]; incubation for 2 hours),Nuclear morphology (apoptotic changes) (Molt-4 cells [7]; 2 mM for 14 hours),Cytotoxicity in normal lymphocytes [8],Cytotoxicity ([9]; 3 mM),"Concentrations at which cytotoxicity was significant, P<0.05 ([9]; 0.5-3 mM tested)","Concentrations at which cytotoxicity was significant, P<0.01 [3]",Nuclear morphology (apoptotic changes) (Molt-4 cells [7]; 0.5 mM for 14 hours),"Plateau of survival (cumulative percentage of survival) (EL-4 lymphoma cells; C57BL mice, EL-4 cells i.p., 236 mg/kg orally daily via drinking water, reached on the 33rd day, control 20%, p=0.01492 Log-Rank, p=0.00953 Cox-Mantel)",Dosage appropriate for prevention of tumoral growth (EL-4 lymphoma cells; preliminary experiments in mice),Cytotoxicity ([9]; 0.5 mM),"Concentrations at which cytotoxicity was significant, P<0.01 ([9]; 0.5-3 mM tested)"
"CC/C=C\C[C@H]1C(=O)CC[C@@H]1CC(=O)O [JA, Jasmonic acid]",≥ 2000 µM,≥ 2000 µM,3000 µM,Molt-4>SK-28>LNCaP>MCF7,cell death,inhibition of cell proliferation,inhibition of cell proliferation,inhibition of cell proliferation,increased Caspase-3 activity significantly,didn't induce an elevation,induced condensation and fragmentation of chromatin,do not harm normal cells,90%,≥ 1000 µM,–,–,–,–,–,–
"O=C([O-])c1ccccc1O.[Na+] [SA, Sodium salicylate, reference compound]",–,–,–,–,inhibition of cell proliferation,inhibition of cell proliferation,inhibition of cell proliferation,inhibition of cell proliferation,–,–,–,–,–,all concentrations,–,–,–,–,–,–
"CC/C=C\CC1C(=O)CCC1CC(=O)OC (stereo not shown) [MJ, methyl jasmonate]",≥ 2000 µM,≥ 2000 µM,–,Molt-4>LNCaP>SK28>MCF7,death,death,death,death,increased Caspase-3 activity significantly,–,–,do not harm normal cells,–,–,3000 µM,completely destroyed nuclear morphology in almost all cells,50%,236-472 mg/kg. body weight,87.52% and 90%,all concentrations
